The nature of series [1]: Anticoagulant activity in plasma assessed as elongation in mean prothrombin time after 5 min by Quick's method. In kind it is functional, cell-free.
A short description of series [2]: Octanol-water partition coefficient, log P of the compound. In kind it is physicochemical.

SMILES strings stand for the structures. ≈ marks a conversion by molar mass, not a printed value.

One may read the IC50 as the concentration that gives 50% inhibition. What is called logP is a log measure of how a compound divides between an organic and an aqueous phase.

With `CC(=O)Oc1ccccc1-c1nnc(NC(=O)C/C(C)=N/c2ccccn2)s1`, the IC50 in series [1] was 2600 µg/mL (≈ 6.57 mM). The log partition coefficient (logP) in series [2] stood at 3.65.

For `C/C(CC(=O)Nc1nnc(-c2ccc(O)cc2)s1)=N\c1ccc([N+](=O)[O-])cn1`, in series [1], the 50% inhibitory concentration (IC50) came to 2800 µg/mL (≈ 7.03 mM). For the same molecule, the logP in series [2] turned out to be 3.34.

For the molecule `C/C(CC(=O)Nc1nnc(-c2ccc(N)cc2)s1)=N\c1ccccn1`, the IC50 in series [1] was determined as 3500 µg/mL (≈ 9.93 mM). In series [2], the logP was 3.3.

`C/C(CC(=O)Nc1nnc(-c2ccc([N+](=O)[O-])cc2)s1)=N\c1ccccn1`: the half-inhibitory concentration (IC50) in series [1] was determined as 1200 µg/mL (≈ 3.14 mM). For the same molecule, the logP in series [2] came to 3.63.

`C/C(CC(=O)Nc1nnc(/C=C/c2ccccc2)s1)=N\c1ccccn1`: in series [1], the IC50 is 2400 µg/mL (≈ 6.6 mM). In series [2], the lipophilicity (logP) was 4.22.

Consider `C/C(CC(=O)Nc1nnc(-c2ccc(O)cc2)s1)=N\c1ccccn1`, for which, in series [1], the IC50 is 3100 µg/mL (≈ 8.77 mM). Moreover, the logP in series [2] came to 3.43.

Turning to `C/C(CC(=O)Nc1nnc(-c2ccc(N)cc2)s1)=N\c1ccc([N+](=O)[O-])cn1`, in series [1], the concentration for half-maximal inhibition (IC50) was determined as 2700 µg/mL (≈ 6.79 mM). In addition, the logP in series [2] was found to be 3.21.

In the case of `CC(=O)Oc1ccccc1-c1nnc(NC(=O)C/C(C)=N/c2ccc([N+](=O)[O-])cn2)s1`, the IC50 in series [1] came to 2100 µg/mL (≈ 4.77 mM). Also, the log partition coefficient (logP) in series [2] is 3.55.

Take `C/C(CC(=O)Nc1nnc(-c2ccc([N+](=O)[O-])cc2)s1)=N\c1ccc([N+](=O)[O-])cn1`: the IC50 in series [1] is 1200 µg/mL (≈ 2.81 mM). In addition, in series [2], the log partition coefficient (logP) is 3.54.

Take `C/C(CC(=O)Nc1nnc(/C=C/c2ccccc2)s1)=N\c1ccc([N+](=O)[O-])cn1`: the IC50 in series [1] amounted to 3000 µg/mL (≈ 7.34 mM). The same molecule yielded a logP in series [2] of 4.13.

The record behind these values is ChEMBL document CHEMBL3045840, “Application of pocket modeling and k-nearest neighbor molecular field analysis (kNN-MFA) for designing of some anticoagulants: potential factor IXa inhibitors” (Med Chem Res, 2013).
